Experimental data published in patent US9004752B2, “Method for evaluating the solubility of a crystalline substance in a polymer” (Abbvie, Inc., priority 2008, dated 2015).

Legend:
[1] = assay type: physicochemical; conditions: 30% w/w in PVP, initially amorphous, yielded crystals
Experimental: To set up an aging experiment, the sample was added into an open DSC pan and heated up on a microscope hot-stage (Linkam THMS 600) to Tm+20° C. under vacuum. The application of vacuum removed air bubbles trapped in the viscous melt. The pan was then quenched to room temperature, sealed immediately, and aged in an oven of known temperature.
To verify the solubility of D-mannitol in PVP obtained with the DSC method (Method I), we used two other solubility-indicating methods (FIG. 7). In the first (Method II), D-mannitol was mixed with PVP at a concentration higher than predicted. The mixture was then aged to see whether the supersaturated solution indeed crystallized over time. We tracked three indicators of crystallization: (a) the glass transition temperature Tg of the mixture, which is expected to increase when D-mannitol is removed from its mixture with PVP (FIG. 5); (b) the appearance of new endotherms with aging which correspond to the dissolution of newly crystallized D-mannitol; and (c) new crystals observable by polarized light microscopy. Modulated DSC (MDSC) was used to measure Tg. In the second method (Method III), D-mannitol was mixed with PVP at high enough concentration so that D-mannitol rapidly crystallized. […]
For Method II, D-mannitol was mixed with PVP by cryogenic milling at 30% w/w. […] The mixture was analyzed by DSC at times ranging from a few days to 155 days. […]

[2] = DSC dissolution-endpoint method (Method I): solubility of a crystalline substance in a polymer; conditions: for solubility in PVP: by extrapolation
Experimental: In a typical procedure, 0.5-1 g of solute/polymer powder was milled at 10 Hz. Each cycle of milling was 2 min, followed by a 2 min cool-down. The cycle was repeated to achieve a desired milling time (16-60 min).
Standard and modulated differential scanning calorimetry (DSC) was conducted in hermetic aluminium pans using a TA Instruments DSC Q1000. 5-10 mg of the sample was packed into the pans. A pin hole was made in the lid to allow the escape of moisture. Standard DSC was performed at heating rates from 0.1 to 3° C./min. Modulated DSC was used to observe the glass transition of the amorphous phase at a heating rate of 2° C./min with the temperature modulating at ±0.5° C. every 60 second.
To further minimize the effect of slow dissolution on the measurement of equilibrium solubility, we measured Tend at several heating rates (FIG. 3) and obtained the Tend at zero heating rate by extrapolation (FIG. 4).
The larger the difference (Tend−Tg), the lower the viscosity of the solution in which D-mannitol completed its dissolution. […] For such systems, Tend changed rapidly and non-linearly with the heating rate, making the extrapolation to zero heating rate less certain. […] Despite this limitation the method enabled us to get sufficiently close to Tg to estimate the solubility of D-mannitol in PVP at Tg: by extrapolation. […] At 95° C., the saturated solution exists at the glass transition temperature.
As in the case of D-mannitol/PVP, cryomilling was used to prepare drug/polymer mixtures. […] As in the case of the D-mannitol/PVP, cryomilling facilitated the determination of dissolution endpoint.

In the case of OC[C@@H](O)[C@@H](O)[C@H](O)[C@H](O)CO [D-mannitol], the “state of the 30% solution in PVP on aging” value [1] is reported as “supersaturated”, the “predicted solubility in PVP (Method I)” value ([2]; 105° C., temperature chosen for the validation tests) is reported as 15% and the “solubility in PVP” value ([2]; PVP K15, […]) is reported as 15 % w/w. For the same molecule, the “solubility in PVP” value ([2]; PVP K15, at 95° C., […]) was 10 % w/w.
